For test [1], the target named is T1, JAK2 (Homo sapiens, UniProt O60674).
T1 construct: endogenous in cells; host or cells: Mixed Molt4/Ramos lysate (1:2)
The test is described as follows: Kinobeads assay, JAK2. The test is classed as binding. The conditions noted are these: mixed Molt4/Ramos cell lysate, dot blot detection. The gist of the method:
(§1)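 Lysate from Molt4 and Ramos cells combined 1:2 at 10 mg/mL total protein met test compound and an aminopyrido-pyrimidine affinity matrix for 3 h in the cold. Captured JAK2 and JAK3, after elution, were measured by specific-antibody dot blot on an infrared system; dose-response curves yielded IC50.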

Test [2] addresses T2, JAK3 (Homo sapiens, UniProt P52333).
T2 construct: endogenous in cells; host or cells: Mixed Molt4/Ramos lysate (1:2)
T2 sequence (P52333 1-1124): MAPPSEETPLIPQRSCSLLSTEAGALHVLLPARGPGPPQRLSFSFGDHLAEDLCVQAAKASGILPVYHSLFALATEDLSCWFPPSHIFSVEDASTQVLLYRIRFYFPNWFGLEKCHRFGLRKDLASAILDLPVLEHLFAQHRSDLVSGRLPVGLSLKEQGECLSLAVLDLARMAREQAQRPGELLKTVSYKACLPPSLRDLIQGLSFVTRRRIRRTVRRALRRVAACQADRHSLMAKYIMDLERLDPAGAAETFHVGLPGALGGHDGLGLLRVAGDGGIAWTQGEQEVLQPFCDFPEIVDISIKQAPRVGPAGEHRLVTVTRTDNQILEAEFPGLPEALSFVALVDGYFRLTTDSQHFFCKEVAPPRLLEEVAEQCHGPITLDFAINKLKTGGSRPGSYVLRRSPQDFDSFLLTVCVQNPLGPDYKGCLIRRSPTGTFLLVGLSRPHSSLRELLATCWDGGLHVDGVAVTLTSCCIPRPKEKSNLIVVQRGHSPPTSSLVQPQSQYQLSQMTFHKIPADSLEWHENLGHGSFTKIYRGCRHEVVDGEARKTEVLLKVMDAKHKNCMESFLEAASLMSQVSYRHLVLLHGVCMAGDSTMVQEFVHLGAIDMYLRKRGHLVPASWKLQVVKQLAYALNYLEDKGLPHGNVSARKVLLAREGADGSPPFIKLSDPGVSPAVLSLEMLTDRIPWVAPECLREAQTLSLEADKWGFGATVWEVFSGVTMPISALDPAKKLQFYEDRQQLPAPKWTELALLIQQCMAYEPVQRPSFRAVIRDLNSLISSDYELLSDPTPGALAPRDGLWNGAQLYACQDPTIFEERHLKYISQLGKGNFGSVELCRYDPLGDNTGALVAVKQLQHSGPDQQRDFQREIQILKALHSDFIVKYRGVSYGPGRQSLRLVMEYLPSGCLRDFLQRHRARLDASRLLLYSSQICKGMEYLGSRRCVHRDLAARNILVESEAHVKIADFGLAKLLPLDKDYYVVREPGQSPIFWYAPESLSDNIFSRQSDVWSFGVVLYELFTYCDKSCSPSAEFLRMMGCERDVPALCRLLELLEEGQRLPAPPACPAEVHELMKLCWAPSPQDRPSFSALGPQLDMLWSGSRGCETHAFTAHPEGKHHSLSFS
Description: Kinobeads assay, JAK3. The conditions noted are these: mixed Molt4/Ramos cell lysate, dot blot detection. It counts as binding. The gist of the method:
as §1

SMILES strings stand for the structures.

T1 sequence (O60674 whole entry): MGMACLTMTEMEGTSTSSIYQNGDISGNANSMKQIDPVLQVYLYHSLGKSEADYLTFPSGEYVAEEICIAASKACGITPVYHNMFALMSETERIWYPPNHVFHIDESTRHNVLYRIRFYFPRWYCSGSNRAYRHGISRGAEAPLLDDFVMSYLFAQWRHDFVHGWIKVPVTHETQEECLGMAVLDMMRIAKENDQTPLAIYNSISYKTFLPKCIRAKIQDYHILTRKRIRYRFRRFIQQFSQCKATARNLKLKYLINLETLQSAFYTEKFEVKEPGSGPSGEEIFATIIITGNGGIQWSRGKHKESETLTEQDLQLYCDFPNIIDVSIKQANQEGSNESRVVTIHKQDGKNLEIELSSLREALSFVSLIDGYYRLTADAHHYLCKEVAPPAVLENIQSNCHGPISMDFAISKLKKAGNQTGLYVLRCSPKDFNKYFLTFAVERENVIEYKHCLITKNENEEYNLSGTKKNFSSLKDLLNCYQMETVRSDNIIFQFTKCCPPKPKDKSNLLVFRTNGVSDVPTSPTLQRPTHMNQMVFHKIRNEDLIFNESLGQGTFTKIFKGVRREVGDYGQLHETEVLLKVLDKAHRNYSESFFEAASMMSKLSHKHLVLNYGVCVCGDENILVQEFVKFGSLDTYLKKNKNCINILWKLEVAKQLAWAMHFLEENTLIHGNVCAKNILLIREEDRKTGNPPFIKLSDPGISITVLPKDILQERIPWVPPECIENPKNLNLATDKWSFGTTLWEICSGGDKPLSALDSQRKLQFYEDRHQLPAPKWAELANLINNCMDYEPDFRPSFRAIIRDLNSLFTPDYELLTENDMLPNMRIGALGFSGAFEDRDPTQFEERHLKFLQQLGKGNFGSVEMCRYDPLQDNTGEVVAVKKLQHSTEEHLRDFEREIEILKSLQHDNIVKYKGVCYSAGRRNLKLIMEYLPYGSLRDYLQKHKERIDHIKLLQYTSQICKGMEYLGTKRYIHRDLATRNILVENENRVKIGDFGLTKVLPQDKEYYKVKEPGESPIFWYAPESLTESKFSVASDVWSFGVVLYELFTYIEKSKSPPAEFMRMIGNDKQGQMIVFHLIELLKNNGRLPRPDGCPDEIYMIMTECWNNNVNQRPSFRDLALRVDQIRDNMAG

With `Cn1cc(Nc2ncc3cnn(Cc4cccc(OCC5CC5)c4)c3n2)cn1` [Example 172, 1-(3-(Cyclopropylmethoxy)benzyl)-N-(1-methyl-1H-pyrazol-4-yl)-1H-pyrazolo[3,4-d]pyrimidin-6-amine], the IC50 is no less than 10 µM in test [1] and 0.1 to 1 µM in test [2].
With `CNC(=O)c1cc(Nc2ncc3cnn(Cc4ccccc4F)c3n2)cn1C` [Example 242, 4-((1-(2-Fluorobenzyl)-1H-pyrazolo[3,4-d]pyrimidin-6-yl)amino)-N,1-dimethyl-1H-pyrrole-2-carboxamide], the 50% inhibitory concentration (IC50) is 0.1 to 1 µM in test [1] and less than 0.1 µM in test [2].
In the same order, the values of `Fc1ccccc1Cn1ncc2cnc(Nc3cnn(CCCN4CCCCC4)c3)nc21` [Example 144, 1-(2-Fluorobenzyl)-N-(1-(3-(piperidin-1-yl)propyl)-1H-pyrazol-4-yl)-1H-pyrazolo[3,4-d]pyrimidin-6-amine] are 0.1 to 1 µM and less than 0.1 µM.
Taken in the same sequence, the figures for `CC(C)c1ccccc1Cn1ncc2cnc(Nc3cnn(C)c3)nc21` [Example 101, 1-(2-Isopropylbenzyl)-N-(1-methyl-1H-pyrazol-4-yl)-1H-pyrazolo[3,4-d]pyrimidin-6-amine] were 1 to 10 µM and 0.1 to 1 µM.
Taken in the same sequence, the figures for `COc1ccc(F)cc1Cn1ncc2cnc(Nc3cnn(C)c3)nc21` [Example 91, 1-(5-Fluoro-2-methoxybenzyl)-N-(1-methyl-1H-pyrazol-4-yl)-1H-pyrazolo[3,4-d]pyrimidin-6-amine] were 0.1 to 1 µM and less than 0.1 µM.
As to `Cn1cc(Nc2ncc3cnn(Cc4c(F)ccc(N5CCNCC5)c4F)c3n2)cn1` [Example 301, 1-(2,6-Difluoro-3-(piperazin-1-yl)benzyl)-N-(1-methyl-1H-pyrazol-4-yl)-1H-pyrazolo[3,4-d]pyrimidin-6-amine], the IC50 in test [1] is 1 to 10 µM; in test [2] it was less than 0.1 µM.
In the same order, the values of `Cn1cc(Nc2ncc3cnn(Cc4cc(F)ccc4C#N)c3n2)cn1` [Example 52, 4-Fluoro-2-((6-(1-methyl-1H-pyrazol-4-ylamino)-1H-pyrazolo[3,4-d]pyrimidin-1-yl)methyl)benzonitrile] are less than 0.1 µM and less than 0.1 µM.
Taken in the same sequence, the figures for `COc1nn(CC(F)F)cc1Nc1ncc2cnn(Cc3ccccc3C(N)=O)c2n1` [Example 36, 2-((6-(1-(2,2-Difluoroethyl)-3-methoxy-1H-pyrazol-4-ylamino)-1H-pyrazolo[3,4-d]pyrimidin-1-yl)methyl)benzamide] were no less than 10 µM and 0.1 to 1 µM.
In the same order, the values of `Cn1cc(Nc2ncc3cnn(Cc4ccccc4CO)c3n2)cn1` [Example 92, (2-((6-((1-Methyl-1H-pyrazol-4-yl)amino)-1H-pyrazolo[3,4-d]pyrimidin-1-yl)methyl)phenyl)methanol] are 1 to 10 µM and less than 0.1 µM.
As to `OCCn1ccc(Nc2ncc3cnn(Cc4ccccc4F)c3n2)n1` [Example 238, 2-(3-((1-(2-Fluorobenzyl)-1H-pyrazolo[3,4-d]pyrimidin-6-yl)amino)-1H-pyrazol-1-yl)ethanol], the half-maximal inhibitory concentration (IC50) in test [1] was no less than 10 µM; in test [2] it was 0.1 to 1 µM.
In the same order, the values of `Cn1cc(Nc2ncc3cnn(-c4ccc(S(=O)(=O)NCCO)cc4)c3n2)cn1` [Example 139, N-(2-Hydroxyethyl)-4-(6-((1-methyl-1H-pyrazol-4-yl)amino)-1H-pyrazolo[3,4-d]pyrimidin-1-yl)benzenesulfonamide] are 1 to 10 µM and 0.1 to 1 µM.
Taken in the same sequence, the figures for `Fc1ccccc1Cn1ncc2cnc(Nc3cnn(CCCN4CCOCC4)c3)nc21` [Example 145, 1-(2-Fluorobenzyl)-N-(1-(3-morpholinopropyl)-1H-pyrazol-4-yl)-1H-pyrazolo[3,4-d]pyrimidin-6-amine] were 0.1 to 1 µM and less than 0.1 µM.
In the same order, the values of `OCCn1cc(Nc2ncc3cnn(Cc4c(F)ccc(N5CCNCC5)c4F)c3n2)cn1` [Example 304, 2-(4-((1-(2,6-Difluoro-3-(piperazin-1-yl)benzyl)-1H-pyrazolo[3,4-d]pyrimidin-6-yl)amino)-1H-pyrazol-1-yl)ethanol] are 1 to 10 µM and less than 0.1 µM.
As for `Cn1nc(Nc2ncc3cnn(Cc4ccccc4F)c3n2)cc1C(=O)O` [Example 236, 3-((1-(2-Fluorobenzyl)-1H-pyrazolo[3,4-d]pyrimidin-6-yl)amino)-1-methyl-1H-pyrazole-5-carboxylic acid], the results for the IC50 in test [1] and in test [2] were no less than 10 µM and 0.1 to 1 µM, respectively.
In the same order, the values of `Fc1ccccc1Cn1ncc2cnc(Nc3c[nH]nc3Cl)nc21` [Example 97, N-(3-Chloro-1H-pyrazol-4-yl)-1-(2-fluorobenzyl)-1H-pyrazolo[3,4-d]pyrimidin-6-amine] are no less than 10 µM and 0.1 to 1 µM.
In the same order, the values of `Cn1cc(Nc2ncc3cnn(Cc4cc(Cl)ccc4F)c3n2)cn1` [Example 64] are 0.1 to 1 µM and less than 0.1 µM.
In the same order, the values of `Cn1cc(Nc2ncc3cnn(Cc4cccc(C5=CCOCC5)c4)c3n2)cn1` [Example 218, 1-(3-(3,6-Dihydro-2H-pyran-4-yl)benzyl)-N-(1-methyl-1H-pyrazol-4-yl)-1H-pyrazolo[3,4-d]pyrimidin-6-amine] are no less than 10 µM and less than 0.1 µM.
On to `Cn1cc(Nc2ncc3cnn(-c4ccc(S(C)(=O)=O)cc4)c3n2)cn1` [Example 61, N-(1-methyl-1H-pyrazol-4-yl)-1-(4-(methylsulfonyl)phenyl)-1H-pyrazolo[3,4-d]pyrimidin-6-amine], for which the 50% inhibitory concentration (IC50) in test [1] was 1 to 10 µM; in test [2], 0.1 to 1 µM.
On to `Cn1cc(Nc2ncc3cnn(Cc4ccccc4F)c3n2)cc1C(=O)NCC#N` [Example 245, N-(Cyanomethyl)-4-((1-(2-fluorobenzyl)-1H-pyrazolo[3,4-d]pyrimidin-6-yl)amino)-1-methyl-1H-pyrrole-2-carboxamide], for which the results for the IC50 in test [1] and in test [2] were 0.1 to 1 µM and less than 0.1 µM, respectively.
`Cc1c(Nc2ncc3cnn(Cc4ccccc4)c3n2)cnn1C` [Example 109, 1-Benzyl-N-(1,5-dimethyl-1H-pyrazol-4-yl)-1H-pyrazolo[3,4-d]pyrimidin-6-amine]: the results for the IC50 in test [1] and in test [2] were no less than 10 µM and 0.1 to 1 µM, respectively.
Taken in the same sequence, the figures for `COc1cccc(Cn2ncc3cnc(Nc4cnn(C)c4)nc32)c1` [Example 69, 1-(3-Methoxybenzyl)-N-(1-methyl-1H-pyrazol-4-yl)-1H-pyrazolo[3,4-d]pyrimidin-6-amine] were 1 to 10 µM and less than 0.1 µM.
For `Cn1cc(Nc2ncc3cnn(Cc4cccc(OC(F)(F)F)c4)c3n2)cn1` [Example 86, N-(1-Methyl-1H-pyrazol-4-yl)-1-(3-(trifluoromethoxy)benzyl)-1H-pyrazolo[3,4-d]pyrimidin-6-amine], the half-maximal inhibitory concentration (IC50) in test [1] is no less than 10 µM; in test [2], 0.1 to 1 µM.
Taken in the same sequence, the figures for `Cn1cc(Nc2ncc3cnn(-c4ccc(NS(C)(=O)=O)cn4)c3n2)cn1` [Example 54, N-(6-(6-(1-Methyl-1H-pyrazol-4-ylamino)-1H-pyrazolo[3,4-d]pyrimidin-1-yl)pyridin-3-yl)methanesulfonamide] were 1 to 10 µM and 0.1 to 1 µM.
Taken in the same sequence, the figures for `NC(=O)n1cc(Nc2ncc3cnn(Cc4ccccc4F)c3n2)cn1` [Example 103, 4-((1-(2-Fluorobenzyl)-1H-pyrazolo[3,4-d]pyrimidin-6-yl)amino)-1H-pyrazole-1-carboxamide] were 1 to 10 µM and 0.1 to 1 µM.
As to `Cc1nn(CC(F)F)cc1Nc1ncc2cnn(Cc3ccccc3C(N)=O)c2n1` [Example 43, 2-((6-(1-(2,2-Difluoroethyl)-3-methyl-1H-pyrazol-4-ylamino)-1H-pyrazolo[3,4-d]pyrimidin-1-yl)methyl)benzamide], the results for the concentration for half-maximal inhibition (IC50) in test [1] and in test [2] were 1 to 10 µM and 0.1 to 1 µM, respectively.
For `OCCn1cc(Nc2ncc3cnn(Cc4cc(F)ccc4F)c3n2)cn1` [Example 32, 2-(4-(1-(2,5-Difluorobenzyl)-1H-pyrazolo[3,4-d]pyrimidin-6-ylamino)-1H-pyrazol-1-yl)ethanol], the IC50 in test [1] and in test [2] was less than 0.1 µM each time.

The term IC50 denotes the concentration that gives 50% inhibition. A lower IC50 goes with greater potency.

The record behind these values is patent US9242987B2, “Heterocyclyl pyrazolopyrimidine analogues as JAK inhibitors” (Cellzome Limited, priority 2009, dated 2016).
